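Tested at 5 concentrations; 48 h exposure; 96-well plates; endpoints linearly interpolated, else capped at highest concentration. GI50: concentration for 50% inhibition of growth.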 Calls of active or inactive are those of the source. No stated cut-off is given here; in the data, active = GI50 up to about 1.1 µM and inactive = higher.
Experiments:
Assay in all cases: NCI-60 cell line screen, 48 h
[1] = tested on: SF-539
[2] = tested on: A549
[3] = tested on: Hs-578T
[4] = tested on: BT-549
[5] = tested on: SF-268
[6] = tested on: NCI-H226
[7] = tested on: A498
[8] = tested on: NCI/ADR-RES
[9] = tested on: HCT-116
[10] = tested on: CAKI-1
[11] = tested on: HCC 2998
[12] = tested on: OVCAR-3
[13] = tested on: U-251
[14] = tested on: OVCAR-5
[15] = tested on: HOP-92
[16] = tested on: HOP-62
[17] = tested on: NCI-H522
[18] = tested on: SR
[19] = tested on: COLO 205

Measured: GI50

COc1cc2c(OC)c3cc(C)oc(=O)c3c(O)c2c(O)c1-c1c(OC)cc2c(OC)c3cc(C)oc(=O)c3c(O)c2c1O
inactive: [1] 17.6 µM | [2] 19.4 µM | [3] 34.2 µM | [4] 24.5 µM | [5] 21.5 µM | [6] 20.3 µM | [7] 24.2 µM | [8] 17.1 µM | [9] 14.9 µM | [10] 15.2 µM | [11] 18.9 µM | [12] 16.6 µM | [13] 15.8 µM | [14] 19.7 µM | [15] 16.1 µM | [16] 15.2 µM | [17] 18.7 µM

COC(=O)c1cc(NC(=O)Cn2c3ccccc3c3ccccc32)cn1C
inactive: [1] 23.9 µM | [2] 26.7 µM | [3] 14.2 µM | [4] 24.9 µM | [18] 49.5 µM | [5] 30.6 µM | [6] 21.6 µM | [7] > 100 µM | [8] 30.3 µM | [9] 46.2 µM | [10] 84.5 µM | [11] 78.9 µM | [12] > 100 µM | [13] 26.4 µM | [14] > 100 µM | [19] 45 µM | [16] 25.6 µM | [17] 28.3 µM

CC(=O)O[C@@H]1C[C@@]23C[C@@]24CC[C@H](OC2OCC(O)C(O)C2O)C(C)(C)[C@@H]4CC=C3[C@]2(C)C[C@@H]3OC4(C[C@@H](C)[C@@H]3[C@@]12C)OC(O)[C@@]1(C)O[C@@H]41 (stereo partly specified)
inactive: [1] 20.8 µM | [2] 48.9 µM | [3] 40.4 µM | [4] 27.9 µM | [5] 58.7 µM | [6] 35.4 µM | [7] 32.1 µM | [8] 43.9 µM | [9] 19.4 µM | [10] 46.1 µM | [11] 20.6 µM | [12] 12.1 µM | [13] 30.7 µM | [14] 47.5 µM | [19] 21.3 µM | [15] 54.3 µM | [16] 27.4 µM | [17] 23 µM

N#Cc1nsnc1-c1nc(-c2nsnc2C#N)nc(-c2nsnc2C#N)n1
inactive: [1] > 100 µM | [3] 37.7 µM | [4] > 100 µM | [18] > 100 µM | [5] > 100 µM | [6] > 100 µM | [7] > 100 µM | [8] > 100 µM | [9] > 100 µM | [10] > 100 µM | [11] > 100 µM | [12] > 100 µM | [13] > 100 µM | [14] > 100 µM | [19] > 100 µM | [16] > 100 µM | [17] > 100 µM

CCC(C#N)NCc1ccc(CNC(C#N)CC)cc1 (stereo unspecified)
inactive: [1] > 100 µM | [2] > 100 µM | [3] > 100 µM | [4] > 100 µM | [5] > 100 µM | [6] > 100 µM | [7] > 100 µM | [8] > 100 µM | [9] > 100 µM | [10] > 100 µM | [11] > 100 µM | [12] > 100 µM | [13] > 100 µM | [14] > 100 µM | [19] > 100 µM | [15] > 100 µM | [17] > 100 µM

OC(C1CCCC1=N/N=C1/CCCC1C(O)(C(F)(F)Cl)C(F)(F)Cl)(C(F)(F)Cl)C(F)(F)Cl (stereo unspecified)
inactive: [1] > 10 µM | [2] > 10 µM | [3] > 10 µM | [4] > 10 µM | [5] > 10 µM | [6] > 10 µM | [7] > 10 µM | [8] > 10 µM | [9] > 10 µM | [10] > 10 µM | [11] > 10 µM | [12] > 10 µM | [13] > 10 µM | [14] > 10 µM | [19] > 10 µM | [15] > 10 µM | [16] > 10 µM | [17] > 10 µM

c1cc2cc(c1)CN1CCNCCN(CCNCC1)Cc1cccc(c1)CN1CCNCCN(CCNCC1)C2
inactive: [1] > 100 µM | [2] > 100 µM | [3] > 100 µM | [4] > 100 µM | [18] 78 µM | [5] > 100 µM | [7] > 100 µM | [8] > 100 µM | [9] > 100 µM | [11] > 100 µM | [12] > 100 µM | [13] > 100 µM | [14] > 100 µM | [19] > 100 µM | [16] > 100 µM

CC(=O)OCC1OC(Oc2cc(C)c(O)cc2C/C=C(\C)CC/C=C(\C)C[C@@H](C=C(C)C)OC(C)=O)C(O)C(OC(C)=O)C1OC(C)=O (stereo partly specified)
inactive: [2] 19.1 µM | [3] 13.6 µM | [4] 16.8 µM | [5] 28.2 µM | [7] 15.2 µM | [8] 16.8 µM | [9] 23.2 µM | [10] > 50 µM | [11] 16.9 µM | [12] 13.4 µM | [13] 25.5 µM | [14] > 50 µM | [19] 9.38 µM | [15] > 50 µM | [16] 28.4 µM | [17] 17.1 µM

OC1CCCN(C2(c3cccs3)CCCCC2)C1 (stereo unspecified)
inactive: [3] > 100 µM | [4] > 100 µM | [5] > 100 µM | [7] > 100 µM | [8] > 100 µM | [9] > 100 µM | [10] > 100 µM | [11] > 100 µM | [12] > 100 µM | [13] > 100 µM | [14] > 100 µM | [19] > 100 µM | [15] > 100 µM | [16] > 100 µM | [17] > 100 µM

Cn1c(=O)n(-c2c3ccccc3c(Cl)c3ccccc23)n(C(C)(C)C)c1=O
inactive: [1] 43.6 µM | [2] > 100 µM | [3] 41.3 µM | [4] > 100 µM | [5] 59.8 µM | [6] 44.6 µM | [7] > 100 µM | [8] > 100 µM | [9] > 100 µM | [10] > 100 µM | [11] > 100 µM | [12] > 100 µM | [13] > 100 µM | [14] > 100 µM | [19] > 100 µM | [15] 57.7 µM | [16] 38.4 µM | [17] > 100 µM

COc1cc([N+](=O)[O-])c(S(=O)(=O)O)cc1NS(=O)(=O)c1ccc(C)cc1
inactive: [1] > 100 µM | [2] > 100 µM | [3] > 100 µM | [4] > 100 µM | [18] > 100 µM | [5] > 100 µM | [6] > 100 µM | [7] > 100 µM | [8] > 100 µM | [9] > 100 µM | [10] > 100 µM | [12] > 100 µM | [13] > 100 µM | [14] > 100 µM | [19] > 100 µM | [16] > 100 µM | [17] > 100 µM
